The text below walks through data of US5741487A, “Mutanase-containing oral compositions” (priority 1996, dated 1998).

What all share (assay type): biochemical
The subject of assay [1] is Mutanase A (RM1 enzyme) from Bacillus sp. RM1 (FERM P-14836). As to the method:
(§1) To 100 μl of a 0.1M acetic acid buffer containing 3% mutan (pH 5) was added 100 μl of the mutanase solution. The mixture was incubated at 35° C. for 10 minutes with shaking at 100 strokes/min. Reaction was terminated by adding 0.4 ml of a 4,6-dinitrosalicylic acid (DNS) solution. The reaction mixture was centrifuged and 0.5 ml of the supernatant was transferred into a test tube. The tube was capped with a glass ball and kept in boiling water for 10 minutes. The tube was cooled with water for 5 minutes. Then 4 ml of distilled water was added and optical absorbance measured at 530 nm. A titer was determined using glucose as standard. The amount of enzyme which releases 1 μg of reducing sugar per minute is defined as one unit. It is noted that the enzymatic activity referred to below in conjunction with any of physicochemical properties is measured by this method.
(§2) Mutanase according to the invention was added to a 50 mM acetic acid buffer (pH 5) in an amount of 50 units/ml. Various inhibitors were individually added thereto in a final concentration of 1 mM. The solution was incubated at 35° C. for 30 minutes. The relative activity is expressed based on the assumption that the enzymatic activity of an inhibitor-free sample is 100%.

Assay [2] relates to Mutanase B (RM4 enzyme) from Bacillus sp. RM4 (FERM P-14837). As to the method:
as §1, §2

In assay [3] the test system is Mutanase C (M7 enzyme) from Bacillus sp. M7 (FERM P-14835). Here is the method: as §1, §2
Setting [4] is: inhibitor final concentration 1 mM, 50 mM acetic acid buffer pH 5, 35° C., 30 minutes, inhibitor-free sample = 100%.
Setting [5] is: mutan substrate, 1 mM inhibitor.

“Also recorded” adds a separate entry of the source. Like-named read-outs stand apart in the source and are kept apart here.

As to `CCN1C(=O)C=CC1=O` [N-ethylmaleimide], the “Relative activity (%) Mutanase A” value in assay [1] (setting [4]) came to 100%. The “Relative activity (%) Mutanase B” value in assay [2] (setting [4]) is 98%. The “Relative activity (%) Mutanase C” value in assay [3] (setting [4]) was determined as 94%.

Regarding `O=C(O)CN(CCN(CC(=O)O)CC(=O)O)CC(=O)O` [2Na-EDTA], the “Relative activity (%) Mutanase A” value in assay [1] (pH 5) is 93%. Moreover, the “Relative activity (%) Mutanase B” value in assay [2] (pH 5) is given as 99%. Moreover, the “Relative activity (%) Mutanase C” value in assay [3] (pH 5) worked out at 79%.

As to `O=C(O)CI` [Iodoacetic acid], in assay [1] (pH 5), the “Relative activity (%) Mutanase A” value turned out to be 100%. Also, the “Relative activity (%) Mutanase B” value in assay [2] (pH 5) is listed as 99%. For the same molecule, the “Relative activity (%) Mutanase C” value in assay [3] (pH 5) worked out at 87%.

Regarding `O=C(O)c1cc[c]([Hg][Cl])cc1` [PCMB, p-chloromercurybenzoic acid], in assay [1] (setting [4]), the “Relative activity (%) Mutanase A” value came out at 6%. In addition, the “effect of inhibitors on mutanase A (in words)” value in assay [1] (setting [5]) is recorded as “shows inhibitory effect; also recorded: strongly inhibits”. In addition, the “Relative activity (%) Mutanase B” value in assay [2] (setting [4]) came out at 14%. The “effect of inhibitors on mutanase B (in words)” value in assay [2] (setting [5]) is reported as “shows inhibitory effect; also recorded: strongly inhibits”. Besides, the “Relative activity (%) Mutanase C” value in assay [3] (setting [4]) was 11%. For the same molecule, the “effect of inhibitors on mutanase C (in words)” value in assay [3] (setting [5]) is “shows inhibitory effect; also recorded: strongly inhibits”.
